Source: ChEMBL document CHEMBL1201862, “PubChem BioAssay data set” (2004)
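The compound was tested at five concentrations on cells cultured in 96-well plates, with a 48-hour exposure period. Abbreviation: GI50, concentration required for 50% inhibition of growth.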 Active and inactive are the calls of the source. Cut-off read from the data, not from the text of the source: active = GI50 up to about 1.1 µM and inactive = higher.

Legend:
Assay in all cases: inhibition of tumour cell growth, NCI panel, 48 h
[1] = tested on: SNB-19
[2] = tested on: Malme-3M
[3] = tested on: ACHN
[4] = tested on: M14
[5] = tested on: LOX IMVI
[6] = tested on: CAKI-1
[7] = tested on: SK-MEL-28
[8] = tested on: COLO 205
[9] = tested on: HOP-92
[10] = tested on: RXF 393
[11] = tested on: NCI-H226
[12] = tested on: NCI-H23
[13] = tested on: OVCAR-4
[14] = tested on: RPMI-8226
[15] = tested on: OVCAR-3
[16] = tested on: PC-3
[17] = tested on: NCI-H460
[18] = tested on: DU-145
[19] = tested on: MDA-MB-231
[20] = tested on: T47D

Structure (SMILES) | GI50 [1] | GI50 [2] | GI50 [3] | GI50 [4] | GI50 [5] | GI50 [6] | GI50 [7] | GI50 [8] | GI50 [9] | GI50 [10] | GI50 [11] | GI50 [12] | GI50 [13] | GI50 [14] | GI50 [15] | GI50 [16] | GI50 [17] | GI50 [18] | GI50 [19] | GI50 [20]
CCN(CC)CC(O)CNc1ccc(NCC2CO2)c2c1C(=O)c1ccccc1C2=O (stereo not drawn) | 1.68 µM (inactive) | 1.93 µM (inactive) | 0.144 µM (active) | 0.199 µM (active) | < 0.01 µM (active) | 0.619 µM (active) | 1.11 µM (active) | 0.906 µM (active) | 1.75 µM (inactive) | 0.397 µM (active) | 1.32 µM (inactive) | 0.499 µM (active) | 1.18 µM (inactive) | 0.614 µM (active) | 0.46 µM (active) | 0.74 µM (active) | 0.695 µM (active) | 1.63 µM (inactive) | 0.536 µM (active) | –
C=C(CN(C)C)C(=O)c1ccccc1C | > 100 µM (inactive) | 17.9 µM (inactive) | 24.7 µM (inactive) | 18.1 µM (inactive) | > 69.5 µM (inactive) | 27.5 µM (inactive) | 9.89 µM (inactive) | 15.5 µM (inactive) | 17.7 µM (inactive) | 12.9 µM (inactive) | > 100 µM (inactive) | > 100 µM (inactive) | > 57.9 µM (inactive) | 15.7 µM (inactive) | 33.1 µM (inactive) | – | > 100 µM (inactive) | > 100 µM (inactive) | – | –
Nc1ccc2ccc(N3CCNCC3)nc2n1 | 42.2 µM (inactive) | 38.9 µM (inactive) | 74.8 µM (inactive) | 55.1 µM (inactive) | > 100 µM (inactive) | > 100 µM (inactive) | > 100 µM (inactive) | 49.1 µM (inactive) | 46 µM (inactive) | – | 21.4 µM (inactive) | 56.8 µM (inactive) | 57.7 µM (inactive) | 84.3 µM (inactive) | 17.9 µM (inactive) | 44.7 µM (inactive) | 44 µM (inactive) | > 100 µM (inactive) | 37.3 µM (inactive) | –
CC[C@]1(O)C(=O)OCc2c1cc1n(c2=O)Cc2cc3c(N)cccc3nc2-1 | > 100 µM (inactive) | > 100 µM (inactive) | > 100 µM (inactive) | > 100 µM (inactive) | > 100 µM (inactive) | > 100 µM (inactive) | > 100 µM (inactive) | > 100 µM (inactive) | > 100 µM (inactive) | > 100 µM (inactive) | > 100 µM (inactive) | > 100 µM (inactive) | > 100 µM (inactive) | > 100 µM (inactive) | > 100 µM (inactive) | – | > 100 µM (inactive) | – | – | –
C(CCCCc1nnc(N2CCCCC2)o1)CCCc1nnc(N2CCCCC2)o1 | > 100 µM (inactive) | > 100 µM (inactive) | > 100 µM (inactive) | > 100 µM (inactive) | > 100 µM (inactive) | > 100 µM (inactive) | > 100 µM (inactive) | > 100 µM (inactive) | > 100 µM (inactive) | > 100 µM (inactive) | > 100 µM (inactive) | > 100 µM (inactive) | > 100 µM (inactive) | – | > 100 µM (inactive) | > 100 µM (inactive) | > 100 µM (inactive) | > 100 µM (inactive) | > 100 µM (inactive) | –
COc1cc(C2SCC(=O)N2NC(=O)c2ccc(NC(C)=O)cc2OC)ccc1O (stereo not drawn) | 30.3 µM (inactive) | > 100 µM (inactive) | 63 µM (inactive) | > 100 µM (inactive) | > 100 µM (inactive) | > 100 µM (inactive) | > 100 µM (inactive) | > 100 µM (inactive) | 29.4 µM (inactive) | 39.3 µM (inactive) | – | 92.9 µM (inactive) | > 100 µM (inactive) | 0.883 µM (active) | > 100 µM (inactive) | 37.4 µM (inactive) | – | 21 µM (inactive) | – | 67.1 µM (inactive)
CN1C(=O)C(C(=O)Nc2ccccn2)C2C[C@@]1(C)Oc1ccccc12 (stereo partly drawn) | > 100 µM (inactive) | > 100 µM (inactive) | 0.861 µM (active) | > 100 µM (inactive) | > 100 µM (inactive) | > 100 µM (inactive) | > 100 µM (inactive) | > 100 µM (inactive) | > 100 µM (inactive) | > 100 µM (inactive) | > 100 µM (inactive) | > 100 µM (inactive) | > 100 µM (inactive) | 56.1 µM (inactive) | > 100 µM (inactive) | > 100 µM (inactive) | > 100 µM (inactive) | > 100 µM (inactive) | > 100 µM (inactive) | –
O=C(c1ccc(Cl)cc1)N(C(=S)N1CCN(c2ccccc2)CC1)C1CCCCC1 | > 100 µM (inactive) | > 100 µM (inactive) | > 100 µM (inactive) | > 100 µM (inactive) | 79.4 µM (inactive) | > 100 µM (inactive) | > 100 µM (inactive) | > 100 µM (inactive) | > 100 µM (inactive) | > 100 µM (inactive) | 1.03 µM (active) | > 100 µM (inactive) | > 100 µM (inactive) | 63.5 µM (inactive) | > 100 µM (inactive) | – | > 100 µM (inactive) | – | – | –
O=C(N/C=C1\C(=O)Oc2ccccc2C1=O)Nc1ccccc1 | 29 µM (inactive) | 17 µM (inactive) | 27.7 µM (inactive) | 52.8 µM (inactive) | 42.4 µM (inactive) | 15.1 µM (inactive) | 87.1 µM (inactive) | > 100 µM (inactive) | 25.8 µM (inactive) | 16.7 µM (inactive) | 23.5 µM (inactive) | 88.7 µM (inactive) | > 100 µM (inactive) | > 100 µM (inactive) | 75 µM (inactive) | – | 63.8 µM (inactive) | – | – | –
O=C(C(=O)n1ncc(Cl)c(Cl)c1=O)n1ncc(Cl)c(Cl)c1=O | > 100 µM (inactive) | 19.7 µM (inactive) | 16.9 µM (inactive) | 25.1 µM (inactive) | 30.1 µM (inactive) | 17.7 µM (inactive) | 25.3 µM (inactive) | 13.9 µM (inactive) | 23.2 µM (inactive) | > 10 µM (inactive) | > 100 µM (inactive) | 19.8 µM (inactive) | 19.6 µM (inactive) | 4.18 µM (inactive) | 27.1 µM (inactive) | – | 45.7 µM (inactive) | – | – | –
O=C(Nc1c(Cl)cc([N+](=O)[O-])cc1Cl)C(=O)C(C(=O)c1ccncc1)C1OC(=O)c2ccccc21 (stereo not drawn) | > 100 µM (inactive) | > 100 µM (inactive) | > 100 µM (inactive) | > 100 µM (inactive) | > 100 µM (inactive) | > 100 µM (inactive) | > 100 µM (inactive) | > 100 µM (inactive) | > 100 µM (inactive) | > 100 µM (inactive) | > 100 µM (inactive) | > 100 µM (inactive) | > 100 µM (inactive) | > 100 µM (inactive) | > 100 µM (inactive) | – | > 100 µM (inactive) | – | – | –
COc1ccccc1CNC1=Nc2ccncc2S(=O)(=O)N1c1ccccc1 | > 100 µM (inactive) | 37.7 µM (inactive) | > 100 µM (inactive) | > 100 µM (inactive) | > 100 µM (inactive) | 63.8 µM (inactive) | > 100 µM (inactive) | 63.4 µM (inactive) | 39.7 µM (inactive) | 2.47 µM (inactive) | > 100 µM (inactive) | 85.1 µM (inactive) | > 100 µM (inactive) | 60.5 µM (inactive) | > 100 µM (inactive) | 31 µM (inactive) | 60.4 µM (inactive) | 97.5 µM (inactive) | – | –
Cn1ncc2c(Cl)ncnc21 | > 100 µM (inactive) | – | > 100 µM (inactive) | > 100 µM (inactive) | > 100 µM (inactive) | > 100 µM (inactive) | > 100 µM (inactive) | > 100 µM (inactive) | > 100 µM (inactive) | > 100 µM (inactive) | > 100 µM (inactive) | > 100 µM (inactive) | > 100 µM (inactive) | > 100 µM (inactive) | > 100 µM (inactive) | > 100 µM (inactive) | > 100 µM (inactive) | > 100 µM (inactive) | – | > 100 µM (inactive)
COC(=O)NCCc1n[nH]c2c1C(=O)C=C(OC)C2=O | 21.3 µM (inactive) | 15.5 µM (inactive) | 19.1 µM (inactive) | 19.7 µM (inactive) | 17.8 µM (inactive) | 24.5 µM (inactive) | 20.1 µM (inactive) | 24.8 µM (inactive) | 21.5 µM (inactive) | 17.6 µM (inactive) | 23 µM (inactive) | 20 µM (inactive) | 19.6 µM (inactive) | 24.5 µM (inactive) | 17.9 µM (inactive) | 34.9 µM (inactive) | > 100 µM (inactive) | 52.6 µM (inactive) | 16.1 µM (inactive) | –
COc1ccccc1/C=C1\CCC(CCN(C)C)(C2=CCCC2)C1=O (stereo not drawn) | 16.1 µM (inactive) | 15.7 µM (inactive) | 16.7 µM (inactive) | 15.5 µM (inactive) | 17.1 µM (inactive) | 20.9 µM (inactive) | 17.7 µM (inactive) | 10.2 µM (inactive) | 16.9 µM (inactive) | 12.8 µM (inactive) | 19.5 µM (inactive) | 31.6 µM (inactive) | 17.7 µM (inactive) | 17.8 µM (inactive) | 16.9 µM (inactive) | – | 14.8 µM (inactive) | – | – | –
COc1ccc(-c2cc(=O)c3c(OC)c(OC)c(OC)c(OC)c3o2)cc1OC [NOBILETIN] | > 100 µM (inactive) | > 100 µM (inactive) | 37.3 µM (inactive) | 55.8 µM (inactive) | 30.1 µM (inactive) | 29.4 µM (inactive) | > 100 µM (inactive) | 35 µM (inactive) | 18.3 µM (inactive) | 61.5 µM (inactive) | 91.6 µM (inactive) | 47.1 µM (inactive) | 28 µM (inactive) | 39.8 µM (inactive) | 24.7 µM (inactive) | – | 52.8 µM (inactive) | 61.1 µM (inactive) | 34.5 µM (inactive) | 19.5 µM (inactive)
